We go through 14 molecules from the Kinase Knowledgebase extract (Sharma et al. 2016).

Experiment [1] concerns the target EGFR (human) (UniProt P00533). As to conditions: A431.
The target in experiment [2] is EGFR (mouse) (UniProt P00533). Particulars: balb/mk cells.
The target of experiment [3] is EGFR (human) (UniProt P00533). As to conditions: a431.
For experiment [4], the target named is EGFR (human) (UniProt P00533). As to conditions: for inhibition: a431, concentration not given here.
Experiment [5] addresses EGFR (UniProt P00533).
Experiment [6] deals with EGFR (UniProt P00533). The source holds these as a separate data set.
Sequence of EGFR (P00533 whole entry, looked up): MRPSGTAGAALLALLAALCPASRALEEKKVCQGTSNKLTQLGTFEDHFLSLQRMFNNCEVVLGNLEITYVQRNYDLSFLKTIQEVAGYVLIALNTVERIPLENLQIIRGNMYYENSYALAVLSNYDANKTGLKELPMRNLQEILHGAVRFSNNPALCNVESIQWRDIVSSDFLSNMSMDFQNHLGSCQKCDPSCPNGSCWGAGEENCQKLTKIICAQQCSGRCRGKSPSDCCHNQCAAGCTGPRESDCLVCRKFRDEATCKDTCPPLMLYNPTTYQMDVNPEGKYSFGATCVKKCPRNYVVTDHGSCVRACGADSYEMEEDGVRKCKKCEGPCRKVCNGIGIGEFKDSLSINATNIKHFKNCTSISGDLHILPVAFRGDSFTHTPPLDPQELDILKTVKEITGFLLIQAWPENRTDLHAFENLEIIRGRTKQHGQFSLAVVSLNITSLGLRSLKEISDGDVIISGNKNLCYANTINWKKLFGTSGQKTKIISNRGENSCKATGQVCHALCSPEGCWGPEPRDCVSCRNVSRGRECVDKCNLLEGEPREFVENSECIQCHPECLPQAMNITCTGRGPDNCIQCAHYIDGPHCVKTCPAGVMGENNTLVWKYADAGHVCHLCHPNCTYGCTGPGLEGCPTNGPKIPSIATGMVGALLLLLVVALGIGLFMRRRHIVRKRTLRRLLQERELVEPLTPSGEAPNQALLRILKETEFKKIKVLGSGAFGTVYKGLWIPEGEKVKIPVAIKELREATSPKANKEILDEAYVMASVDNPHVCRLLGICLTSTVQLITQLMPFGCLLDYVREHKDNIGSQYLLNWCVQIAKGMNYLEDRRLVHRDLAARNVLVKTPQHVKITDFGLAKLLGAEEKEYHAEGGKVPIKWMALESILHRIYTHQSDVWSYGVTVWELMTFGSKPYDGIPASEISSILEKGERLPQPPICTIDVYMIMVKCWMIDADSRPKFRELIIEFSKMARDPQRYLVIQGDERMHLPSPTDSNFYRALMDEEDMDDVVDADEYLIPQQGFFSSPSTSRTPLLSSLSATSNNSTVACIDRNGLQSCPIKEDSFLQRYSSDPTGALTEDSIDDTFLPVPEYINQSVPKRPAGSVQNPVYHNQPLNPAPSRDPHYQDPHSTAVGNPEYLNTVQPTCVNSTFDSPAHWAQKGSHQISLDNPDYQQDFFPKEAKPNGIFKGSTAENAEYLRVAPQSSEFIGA
In experiment [7] the target is EGFR (UniProt P00533). This is another data set of the same source.
Experiment [8] deals with EGFR (human) (UniProt P00533). Particulars: A431. This is another data set of the same source.

Sequence of EGFR (human) (P00533 whole entry, looked up): as above

In the case of `C=CCN1C(=O)C(CC(=O)O)SC1=NN=C1SCC(=O)N1C` (centres undefined), the figures for the IC50 in experiment [1], in experiment [2] and in experiment [3] were over 100 µM, over 50 µM and over 50 µM, respectively. In experiment [4], this molecule registered an inhibition of 0%.

Take `N#CC(C#N)=Cc1cc(O)cc(O)c1`: in experiment [1], the IC50 is 42 µM. In experiment [5], this molecule displayed a concentration for half-maximal inhibition (IC50) of 35 µM and an inhibition constant Ki of 11 µM.

In the case of `C=C(C)CN1C(=O)C(CO)SC1=NN=C1SCC(=O)N1C` (centres undefined), the IC50 in experiment [1] was over 50 µM; in experiment [2], over 50 µM; in experiment [3], 41 µM. The molecule further showed an inhibition in experiment [4] of 0%.

As for `C=C(C)CN1C(=O)C(O)SC1=NN=C1SCC(=O)N1C` (centres undefined), the 50% inhibitory concentration (IC50) in experiment [1] is over 100 µM; in experiment [2] it was over 50 µM; in experiment [3], over 50 µM. This molecule gave an inhibition in experiment [4] of 0%.

On to `C=CCN1C(=O)C(C)SC1=NN=C1SCC(=O)N1C` (centres undefined), for which the IC50 in experiment [1], in experiment [2] and in experiment [3] was over 50 µM in each case. In experiment [4], this molecule displayed an inhibition of 0%.

Take `C=C(C)CN1C(=O)C(CN(C)C)SC1=NN=C1SCC(=O)N1C` (centres undefined): the figures for the 50% inhibitory concentration (IC50) in experiment [1], in experiment [2] and in experiment [3] were 2 µM, 0.98 µM and 1.63 µM, respectively.

Turning to `C=C(C)CN1C(=O)CSC1=NN=C1SCC(=O)N1C`, the IC50 in experiment [1], in experiment [2] and in experiment [3] was over 50 µM each time. Also, the inhibition in experiment [4] came to 0%.

In the case of `C=CCN1C(=O)C(=C)SC1=NN=C1SCC(=O)N1C`, the IC50 worked out at 6 µM in experiment [1], 1.03 µM in experiment [2] and 1.51 µM in experiment [3].

`O=CN/C=C/c1cc(O)ccc1O`: the IC50 in experiment [1] was determined as 12.7 µM. Further, the Ki in experiment [6] came out at 6 µM.

Consider `C=C(C)CN1C(=O)C(OS(=O)(=O)O)SC1=NN=C1SCC(=O)N1C` (centres undefined), for which the half-inhibitory concentration (IC50) in experiment [1] was 100 µM; in experiment [2] it was over 50 µM; in experiment [3], over 50 µM. In addition, the inhibition in experiment [4] was determined as 0%.

In experiment [5], `CC(=S)N/C(C#N)=C/c1ccc(O)c(O)c1` showed an IC50 of 2.4 µM and a Ki of 0.85 µM.

`C=C(C)CN1C(=O)C(C)SC1=NN=C1SCC(=O)N1C` (centres undefined): the IC50 in experiment [1], in experiment [2] and in experiment [3] was over 50 µM in each case. The inhibition in experiment [4] came out at 0%.

As for `CCOc1cc(/C=C(/C#N)C(N)=O)cc(Cc2ccccc2)c1O`, in experiment [1], the IC50 came to 9 µM. In experiment [7], this molecule displayed a half-maximal inhibitory concentration (IC50) of 1000 nM and a Ki of 2100 nM.

Consider `C=C(C)CN1C(=O)C(=C)SC1=NN=C1SCC(=O)N1C`, for which the concentration for half-maximal inhibition (IC50) was 1 µM in experiment [1]; 5 µM in experiment [8]; 1 µM in experiment [2]; 1.55 µM in experiment [3]; 12.5 to 25 µM in experiment [4] (a431).
